# Assay results taken from PubChem BioAssay (NCI).
#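 Step 1: Grow cells in 96-well plates. Step 2: Expose to compound for 48 hours at 5 concentrations. Step 3: Interpolate endpoints linearly; if unreached, use highest concentration. GI50 is the concentration that inhibits growth by half. TGI: concentration producing complete growth inhibition.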
# Tests used:
# Experiment in all cases: NCI tumour cell line growth inhibition, 48 h
# [1] = tested on: 786-0 renal
# [2] = tested on: A498 renal
# [3] = tested on: A549 NSCLC
# [4] = tested on: ACHN renal
# [5] = tested on: BT-549 breast
# [6] = tested on: CAKI-1 renal
# [7] = tested on: CCRF-CEM leukemia
# [8] = tested on: COLO 205 colon
# [9] = tested on: DU-145 prostate
# [10] = tested on: HCC-2998 colon
# [11] = tested on: HCT-116 colon
# [12] = tested on: HCT-15 colon
# [13] = tested on: HL-60(TB) leukemia
# [14] = tested on: HOP-62 NSCLC
# [15] = tested on: HOP-92 NSCLC
# [16] = tested on: HS 578T breast
# [17] = tested on: HT29 colon
# [18] = tested on: IGROV1 ovarian
# [19] = tested on: K-562 leukemia
# [20] = tested on: KM12 colon
# [21] = tested on: LOX IMVI melanoma
# [22] = tested on: M14 melanoma
# [23] = tested on: MALME-3M melanoma
# [24] = tested on: MCF7 breast
# [25] = tested on: MDA-MB-231 breast
# [26] = tested on: MDA-MB-435
# [27] = tested on: MOLT-4 leukemia
# [28] = tested on: NCI-H226 lung
# [29] = tested on: NCI-H23 lung
# [30] = tested on: NCI-H460 lung
# [31] = tested on: NCI-H522 lung
# [32] = tested on: NCI/ADR-RES ovarian
# [33] = tested on: OVCAR-3 ovarian
# [34] = tested on: OVCAR-4 ovarian
# [35] = tested on: OVCAR-5 ovarian
# [36] = tested on: OVCAR-8 ovarian
# [37] = tested on: PC-3 prostate
# [38] = tested on: RPMI-8226 leukemia
# [39] = tested on: RXF 393 renal
# [40] = tested on: SF-268 CNS
# [41] = tested on: SF-295 CNS
# [42] = tested on: SF-539 CNS
# [43] = tested on: SK-MEL-2 melanoma
# [44] = tested on: SK-MEL-28 melanoma
# [45] = tested on: SK-MEL-5 melanoma
# [46] = tested on: SK-OV-3 ovarian
# [47] = tested on: SN12C renal
# [48] = tested on: SNB-19 CNS
# [49] = tested on: SNB-75 CNS
# [50] = tested on: SR leukemia
# [51] = tested on: SW-620 colon
# [52] = tested on: T-47D breast
# [53] = tested on: TK-10 renal
# [54] = tested on: U251 CNS
# [55] = tested on: UACC-257 melanoma
# [56] = tested on: UACC-62 melanoma
# [57] = tested on: UO-31 renal
compound,measurement,setting,value
CCN(Cc1ccccn1)c1ccc(CO)c(Cl)c1,GI50,[1],> 100 µM
same,TGI,[1],> 100 µM
same,GI50,[2],125 nM
same,TGI,[2],266 nM
same,GI50,[3],16.6 µM
same,TGI,[3],> 100 µM
same,GI50,[4],> 100 µM
same,TGI,[4],> 100 µM
same,GI50,[5],> 100 µM
same,TGI,[5],> 100 µM
same,GI50,[6],39 µM
same,TGI,[6],> 100 µM
same,GI50,[7],> 100 µM
same,TGI,[7],> 100 µM
same,GI50,[8],4.65 µM
same,TGI,[8],16 µM
same,GI50,[9],> 100 µM
same,TGI,[9],> 100 µM
same,GI50,[10],18.1 µM
same,TGI,[10],> 100 µM
same,GI50,[11],1120 nM
same,TGI,[11],> 100 µM
same,GI50,[12],> 100 µM
same,TGI,[12],> 100 µM
same,GI50,[13],46 µM
same,TGI,[13],> 100 µM
same,GI50,[14],46.1 µM
same,TGI,[14],> 100 µM
same,GI50,[15],10 µM
same,TGI,[15],> 96.6 µM
same,GI50,[16],> 100 µM
same,TGI,[16],> 100 µM
same,GI50,[17],> 69.8 µM
same,TGI,[17],> 100 µM
same,GI50,[18],680 nM
same,TGI,[18],3.89 µM
same,GI50,[19],17.3 µM
same,TGI,[19],> 100 µM
same,GI50,[20],> 100 µM
same,TGI,[20],> 100 µM
same,GI50,[21],> 100 µM
same,TGI,[21],> 100 µM
same,GI50,[22],> 100 µM
same,TGI,[22],> 100 µM
same,GI50,[23],> 100 µM
same,TGI,[23],> 100 µM
same,GI50,[24],2780 nM
same,TGI,[24],> 100 µM
same,GI50,[25],> 100 µM
same,TGI,[25],> 100 µM
same,GI50,[26],> 100 µM
same,TGI,[26],> 100 µM
same,GI50,[27],> 100 µM
same,TGI,[27],> 100 µM
same,GI50,[28],151 nM
same,TGI,[28],332 nM
same,GI50,[29],> 100 µM
same,TGI,[29],> 100 µM
same,GI50,[30],2710 nM
same,TGI,[30],40.7 µM
same,GI50,[31],> 100 µM
same,TGI,[31],> 100 µM
same,GI50,[32],52.2 µM
same,TGI,[32],> 100 µM
same,GI50,[33],3.75 µM
same,TGI,[33],23.3 µM
same,GI50,[34],2320 nM
same,TGI,[34],34.7 µM
same,GI50,[35],385 nM
same,TGI,[35],1580 nM
same,GI50,[36],59.4 µM
same,TGI,[36],> 100 µM
same,GI50,[37],> 89.8 µM
same,TGI,[37],> 100 µM
same,GI50,[38],26.3 µM
same,TGI,[38],> 100 µM
same,GI50,[39],> 28.4 µM
same,TGI,[39],> 100 µM
same,GI50,[40],> 100 µM
same,TGI,[40],> 100 µM
same,GI50,[41],4.91 µM
same,TGI,[41],> 100 µM
same,GI50,[42],> 100 µM
same,TGI,[42],> 100 µM
same,GI50,[43],> 76.8 µM
same,TGI,[43],> 100 µM
same,GI50,[44],> 100 µM
same,TGI,[44],> 100 µM
same,GI50,[45],72.1 µM
same,TGI,[45],> 100 µM
same,GI50,[46],36.1 µM
same,TGI,[46],> 100 µM
same,GI50,[47],> 100 µM
same,TGI,[47],> 100 µM
same,GI50,[48],> 100 µM
same,TGI,[48],> 100 µM
same,GI50,[49],> 51.7 µM
same,TGI,[49],> 100 µM
same,GI50,[50],> 100 µM
same,TGI,[50],> 100 µM
same,GI50,[51],22.8 µM
same,TGI,[51],> 100 µM
same,GI50,[52],927 nM
same,TGI,[52],5.5 µM
same,GI50,[53],199 nM
same,TGI,[53],744 nM
same,GI50,[54],23.6 µM
same,TGI,[54],> 100 µM
same,GI50,[55],719 nM
same,TGI,[55],2420 nM
same,GI50,[56],923 nM
same,TGI,[56],7.83 µM
same,GI50,[57],69.3 µM
same,TGI,[57],> 100 µM
